# Assay results taken from patent publication US20210196747A1, “METABOLISM IMPROVING AGENT” (University of the Ryukyus, priority 2018, published 2021).
# System: model rat of the present invention (13LK freely fed)
# Assay: Alkalizing agent (citrate or sodium bicarbonate) given to the 13LK-fed model rat: urine pH and urinary corticosterone excretion (Example 3)
# Assay type: in vivo
# Settings: 13LK model rat, 1 week, n = 8; for Urine pH: 13LK control 5.7 ± 0.2; for Urine corticosterone: 13LK control 486 ± 115
# Protocol: Citrate or sodium bicarbonate was administered as an alkalizing agent using the model rat of the present invention prepared in Example 1 (13LK was freely fed as a feed for one week), and the results of confirming urine pH and urinary glucocorticoid (corticosterone) excretion are shown in Table 3. Urine pH increased and corticosterone excretion decreased in both the citrate administration group and the sodium bicarbonate administration group as compared to the control group.
structure (smiles),measurement,setting,value
"O=C([O-])O.[Na+] [NaHCO3, sodium bicarbonate]",Urine pH,,6.8 ± 0.6
same,Urine pH,listed as sodium bicarbonate,increased
same,Urine corticosterone,,309 ± 116 ng/day
same,Urine corticosterone,listed as sodium bicarbonate,decreased
